# From patent US20140248252A1, “New Salt And Medical Use” (Pfizer Limited, priority 2011, published 2014)
# Assays:
# uric acid in blood [1] = experiment: Single dose study: uric acid in blood of healthy subjects (colorimetric assay kit); type: in vivo, human; conditions: fasted
# Experimental: (§1) Uric acid measurements were performed using a commercial colorimetric assay kit (Beckman Coulter).
# Single doses of 4-[2-(5-amino-1H-pyrazol-4-yl)-4-chlorophenoxy]-5-chloro-2-fluoro-N-(1,3-thiazol-4-yl)benzenesulfonamide SDD (‘SDD’) dispersion for oral administration, ranging from 10 mg to 2400 mg, were investigated. In addition, single doses of 4-[2-(5-amino-1H-pyrazol-4-yl)-4-chlorophenoxy]-5-chloro-2-fluoro-N-(1,3-thiazol-4-yl)benzenesulfonamide tosylate (‘TS’) dispersion for oral administration, ranging from 200 mg to 1000 mg, were also investigated.
# The following doses were investigated and all doses were given in the fasted state with the exception of 200 mg and 1000 mg SDD dispersions, which were given in both the fasted state and after a high-fat meal (‘fed’).
# A total of 61 subjects (all male) participated and all received at least one dose of SDD or TS dispersion for oral administration.
# Mean data of uric acid levels per dose group are given as follows: • SDD fasted: Table 5 • SDD fed and fasted Table 6 • TS Table 7
# uric acid in blood [2] = experiment: Multiple dose study (TS, 14 days): uric acid in blood of healthy and elderly subjects; type: in vivo, human
# Experimental: as §1
# (§2) Multiple oral doses of 4-[2-(5-amino-1H-pyrazol-4-yl)-4-chlorophenoxy]-5-chloro-2-fluoro-N-(1,3-thiazol-4-yl)benzenesulfonamide TS dispersion for oral administration, and placebo, were investigated for 14 days, as follows: • healthy subjects, 300 mg twice daily (BID,) • healthy subjects, 450 mg BID, and • elderly subjects, 300 mg BID.
# (§3) Subjects were fasted overnight prior to the morning doses and for at least 2 hours prior to the evening doses. Food was withheld for at least 2 hours postdose.
# A total of 49 subjects were enrolled in the study of which 39 received 4-[2-(5-amino-1H-pyrazol-4-yl)-4-chlorophenoxy]-5-chloro-2-fluoro-N-(1,3-thiazol-4-yl)benzenesulfonamide TS and 10 received placebo.
# uric acid in urine [3] = experiment: Multiple dose study (TS, 14 days): fraction of uric acid excreted in urine; type: in vivo, human; conditions: for Fraction excreted of uric acid: urine
# Experimental: as §2, §3
# Uric acid was also measured in urine collected over 24 hours prior to dosing on Day 1, and then on Days 6, 14 and 16. The percent excreted fraction of uric acid in urine was calculated and analyzed with a linear mixed effects model.
# [4] = Stability of the tosylate salt versus free base and other salts; type: physicochemical
# [5] = Aqueous solubility of the tosylate salt; type: physicochemical
# uric acid in urine [6] = experiment: Multiple dose study (TS, 14 days): fraction of uric acid excreted in urine; type: in vivo, human; conditions: day 10
# uric acid in blood [7] = experiment: Multiple dose study (SDD, 14 days): uric acid in blood of healthy subjects; type: in vivo, human; conditions: 600 mg BID; 30 subjects enrolled in the study
# Experimental: as §1
# Multiple oral doses of 100 mg twice daily (BID), 300 mg BID, and 600 mg BID of 4-[2-(5-amino-1H-pyrazol-4-yl)-4-chlorophenoxy]-5-chloro-2-fluoro-N-(1,3-thiazol-4-yl)benzenesulfonamide SDD dispersion for oral administration, and placebo, were investigated for 14 days. Subjects were fasted overnight prior to the morning doses and for at least 2 hours prior to the evening doses. Food was withheld for at least 2 hours postdose.
# A total of 30 subjects (all male) were enrolled in the study and 27 subjects completed the study (three subjects were withdrawn due to adverse events during treatment with 600 mg BID 4-[2-(5-amino-1H-pyrazol-4-yl)-4-chlorophenoxy]-5-chloro-2-fluoro-N-(1,3-thiazol-4-yl)benzenesulfonamide).
# URAT-1 transporter = target: T1, URAT-1 transporter (Homo sapiens, UniProt Q96S37); experiment: URAT-1 inhibitor activity: [14C]-uric acid uptake in HEK-URAT1 cells; type: cell-based; conditions: [14C]-uric acid (20 μM), 2 minutes, normalised to the standard compound benzbromarone, read-out: inhibition of uric acid uptake (IC50)
# T1 construct: expressed in transfected cells; host or cells: HEK293 cells, transient transfection with Lipofectamine 2000
# T1 sequence (Q96S37 1-553): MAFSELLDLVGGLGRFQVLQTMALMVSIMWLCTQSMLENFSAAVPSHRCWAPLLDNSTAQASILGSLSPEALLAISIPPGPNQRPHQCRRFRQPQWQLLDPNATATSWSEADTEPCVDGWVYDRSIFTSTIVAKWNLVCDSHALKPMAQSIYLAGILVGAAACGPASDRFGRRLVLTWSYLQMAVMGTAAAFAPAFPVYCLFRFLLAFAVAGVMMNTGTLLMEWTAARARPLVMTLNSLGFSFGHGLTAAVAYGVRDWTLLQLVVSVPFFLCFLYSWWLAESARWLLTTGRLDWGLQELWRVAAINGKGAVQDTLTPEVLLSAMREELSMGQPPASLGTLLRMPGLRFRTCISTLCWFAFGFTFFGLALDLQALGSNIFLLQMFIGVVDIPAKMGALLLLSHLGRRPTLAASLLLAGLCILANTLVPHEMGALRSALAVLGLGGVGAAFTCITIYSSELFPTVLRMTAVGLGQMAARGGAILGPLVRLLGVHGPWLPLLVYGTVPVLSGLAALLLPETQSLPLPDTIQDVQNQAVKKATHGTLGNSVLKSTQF
# Experimental: The potency of 4-[2-(5-amino-1H-pyrazol-4-yl)-4-chlorophenoxy]-5-chloro-2-fluoro-N-(1,3-thiazol-4-yl)benzenesulfonamide as an inhibitor of the URAT-1 transporter was determined as follows.
# HEK293 cells were grown in medium consisting of Dulbecco's modified Eagle medium (DMEM) with L-GlutaMax (4.5 g of glucose per litre), supplemented with heat-inactivated foetal calf serum (10% v/v), 100 U/mL penicillin and 100 μg/mL streptomycin. The HEK cells were routinely cultured in 75 cm^2 tissue culture flasks in a humidified incubator at approximately 37° C. in approximately 95% air/5% CO2. […]
# One day after transfection, culture medium was removed from the wells and the cells were pre-incubated with 0.2 mL of chlorine-free incubation medium (125 mM Na-gluconate, 4.8 mM K-gluconate, 1.3 mM Ca-gluconate, 1.2 mM KH2PO4, 1.2 mM MgSO4, 5.6 mM D-glucose, 25 mM HEPES, pH 7.4), in the absence and presence of 4-[2-(5-amino-1H-pyrazol-4-yl)-4-chlorophenoxy]-5-chloro-2-fluoro-N-(1,3-thiazol-4-yl)benzenesulfonamide (0-30 μM), for 15 minutes at approximately 37° C. […] The concentrations of [^14C]-uric acid were determined by liquid scintillation counting (LSC). The inhibition of [^14C]-uric acid transport was also determined in the presence of the known inhibitor benzbromarone (30 μM). […]
# The amount of radioactivity present in cell lysate samples was determined by liquid scintillation counting (LSC). […]
# [8] = TS oral 300 mg BID, elderly subjects, day 6
# [9] = TS oral 300 mg BID, elderly subjects, day 14
# [10] = TS oral 300 mg BID, healthy subjects, day 6
# [11] = TS oral 300 mg BID, healthy subjects, day 14
# [12] = TS oral 450 mg BID, healthy subjects, day 6
# [13] = TS oral 450 mg BID, healthy subjects, day 14
structure (smiles),measurement,setting,value
"Cc1ccc(S(=O)(=O)O)cc1.Nc1[nH]ncc1-c1cc(Cl)ccc1Oc1cc(F)c(S(=O)(=O)Nc2cscn2)cc1Cl [TS, 4-[2-(5-amino-1H-pyrazol-4-yl)-4-chlorophenoxy]-5-chloro-2-fluoro-N-(1,3-thiazol-4-yl)benzenesulfonamide tosylate]",Mean uric acid,"uric acid in blood [1]; TS oral single dose 200 mg, 0 hours",5.92 mg/dL
same,Mean uric acid,"uric acid in blood [1]; TS oral single dose 200 mg, 48 hours",5.43 mg/dL
same,Mean uric acid,"uric acid in blood [1]; TS oral single dose 600 mg, 0 hours",6.21 mg/dL
same,Mean uric acid,"uric acid in blood [1]; TS oral single dose 600 mg, 48 hours",5.04 mg/dL
same,Mean uric acid,"uric acid in blood [1]; TS oral single dose 1000 mg, 0 hours",6.40 mg/dL
same,Mean uric acid,"uric acid in blood [1]; TS oral single dose 1000 mg, 48 hours",4.86 mg/dL
same,Mean uric acid,"uric acid in blood [2]; TS oral 300 mg BID for 14 days, elderly subjects, day 0",5.43 mg/dL
same,Mean uric acid,"uric acid in blood [2]; TS oral 300 mg BID for 14 days, healthy subjects, day 0",5.56 mg/dL
same,Mean uric acid,"uric acid in blood [2]; TS oral 300 mg BID, elderly subjects, day 3",3.41 mg/dL
same,Mean uric acid,uric acid in blood [2]; [8],2.99 mg/dL
same,Mean uric acid,"uric acid in blood [2]; TS oral 300 mg BID, elderly subjects, day 8",3.57 mg/dL
same,Mean uric acid,"uric acid in blood [2]; TS oral 300 mg BID, elderly subjects, day 10",3.37 mg/dL
same,Mean uric acid,uric acid in blood [2]; [9],3.59 mg/dL
same,Mean uric acid,"uric acid in blood [2]; TS oral 300 mg BID, healthy subjects, day 3",3.50 mg/dL
same,Mean uric acid,uric acid in blood [2]; [10],3.23 mg/dL
same,Mean uric acid,"uric acid in blood [2]; TS oral 300 mg BID, healthy subjects, day 8",3.54 mg/dL
same,Mean uric acid,"uric acid in blood [2]; TS oral 300 mg BID, healthy subjects, day 10",3.79 mg/dL
same,Mean uric acid,uric acid in blood [2]; [11],3.78 mg/dL
same,Mean uric acid,"uric acid in blood [2]; TS oral 450 mg BID for 14 days, healthy subjects, day 0",5.89 mg/dL
same,Mean uric acid,"uric acid in blood [2]; TS oral 450 mg BID, healthy subjects, day 3",3.05 mg/dL
same,Mean uric acid,uric acid in blood [2]; [12],3.00 mg/dL
same,Mean uric acid,"uric acid in blood [2]; TS oral 450 mg BID, healthy subjects, day 8",3.21 mg/dL
same,Mean uric acid,"uric acid in blood [2]; TS oral 450 mg BID, healthy subjects, day 10",3.45 mg/dL
same,Mean uric acid,uric acid in blood [2]; [13],3.56 mg/dL
same,Fraction excreted of uric acid,"uric acid in urine [3]; TS oral 300 mg BID, elderly subjects, day 1",6.17%
same,Fraction excreted of uric acid,uric acid in urine [3]; [8],13.79%
same,Fraction excreted of uric acid,uric acid in urine [3]; [9],7.66%
same,Fraction excreted of uric acid,"uric acid in urine [3]; TS oral 300 mg BID, healthy subjects, day 1",8.44%
same,Fraction excreted of uric acid,uric acid in urine [3]; [10],17.41%
same,Fraction excreted of uric acid,uric acid in urine [3]; [11],6.43%
same,Fraction excreted of uric acid,"uric acid in urine [3]; TS oral 450 mg BID, healthy subjects, day 1",8.61%
same,Fraction excreted of uric acid,uric acid in urine [3]; [12],19.81%
same,Fraction excreted of uric acid,uric acid in urine [3]; [13],7.69%
same,solid form stability,"[4]; crystalline form, versus free base",better solid form stability than the free base
same,stability with regard to disassociation,[4]; versus other salts,greater stability with regard to disassociation than other salts
same,chemical stability,"[4]; with regard to formulation and storage, versus free base",improved chemical stability over the free base
same,aqueous solubility,[5],good aqueous solubility
same,Fraction excreted of uric acid,"uric acid in urine [6]; TS oral 300 mg BID, elderly subjects",13.02%
same,Fraction excreted of uric acid,"uric acid in urine [6]; TS oral 300 mg BID, healthy subjects",14.99%
same,Fraction excreted of uric acid,"uric acid in urine [6]; TS oral 450 mg BID, healthy subjects",17.09%
"Nc1[nH]ncc1-c1cc(Cl)ccc1Oc1cc(F)c(S(=O)(=O)Nc2cscn2)cc1Cl [4-[2-(5-amino-1H-pyrazol-4-yl)-4-chlorophenoxy]-5-chloro-2-fluoro-N-(1,3-thiazol-4-yl)benzenesulfonamide]",subjects withdrawn due to adverse events,uric acid in blood [7],three
same,median blood uric acid concentration versus LLN,"uric acid in blood [2]; 450 mg BID, Day 3",fell below LLN
same,Concentrations of uric acid in blood following dosing,uric acid in blood [2]; TS BID for 14 days,decreased
same,median blood uric acid concentration versus LLN,"uric acid in blood [2]; all cohorts (300 mg and 450 mg BID), Day 6",below the LLN
same,time until blood uric acid returned to above the LLN after cessation of dosing,uric acid in blood [2]; all subjects (i.e. by Day 16),≤ 2 days
same,excreted fraction of uric acid in urine after dosing,uric acid in urine [3]; Day 16,returns to baseline by Day 16
same,excreted fraction of uric acid in urine during dosing,"uric acid in urine [3]; TS BID, 24 hour urine",increases during dosing
same,IC50,URAT-1 transporter,3.54 µM
